According to patent US20250228847A1, “COMBINATION THERAPY FOR TREATING CANCER” (AstraZeneca AB, priority 2022, published 2025):

Legend:
C4-2 cells = test: Cell proliferation / viability assay (Sytox Green, AC50), 7 days treatment; format: cell-based; conditions: C4-2 cell line (mCRPC, AR+, ARV7), single agent
Protocol: (§1) The following cell lines were originally obtained from ATCC:
(§2) Cell line identification was validated using the CellCheck assay (IDEXX Bioanalytics, Westbrook, ME, USA). All cell lines were validated free of virus Mycoplasma contamination using the MycoSEQ assay (Thermo Fisher Scientific, Waltham, MA, USA) or STAT-Myco assay (IDEXX Bioanalytics). All cell lines were grown RPMI-1640 growth media (Corning 17-105-CV) supplemented with 10% fetal bovine serum (FBS) or, when indicated, 10% charcoal stripped FBS (ThermoFisher Scientific, 12676029) and 2 mM glutamine.
(§3) Cells in 384-well or 96-well plates were dosed using an Echo 555 (LabCyte, San Jose, CA, USA) or using the HP D300e Digital Dispenser (HP Life Science Dispensing), respectively. Live cell count pre- and post-treatment (7 days after treatment) was determined using CellTiter-Glo as per manufacturer's instructions (Promega, Madison, WI, USA; G7570).
(§4) Cell viability was determined with the Sytox Green assay as described in Davies 2012 and the AC50 calculated. The HSA (Highest Single Agent) Synergy Score was calculated according to Bernenbaum 1989.

LnCAP cells = test: as above; format: cell-based; conditions: Homo sapiens, LnCAP cell line (mHSPC, AR+ T877A), single agent
Protocol: as §1, §2, §3, §4

Row | Structure (SMILES) | AC50 (C4-2 cells) [µM] | AC50 (LnCAP cells) [µM]
1 | C[C@]12CC[C@H](O)CC1=CC[C@@H]1[C@@H]2CC[C@]2(C)C(c3cccnc3)=CC[C@@H]12 [Abiraterone, abiraterone] | 2.81 | 4.94
2 | CCc1cc2ncc(CN3CCN(c4ccc(C(=O)NC)nc4)CC3)cc2[nH]c1=O [AZD5305, 5-{4-[(7-ethyl-6-oxo-5,6-dihydro-1,5-naphthyridin-3-yl)methyl]piperazin-1-yl}-N-methylpyridine-2-carboxamide] | > 1 | > 1
